Reference: ChEMBL document CHEMBL5528074 (J Med Chem, 2024)

Key:
[1] = target: T1, G-protein coupled receptor 183 (Homo sapiens, UniProt P32249)
Description: Antagonist activity at GPR183 (unknown origin) transfected in HEK293 cells incubated for 30 mins by Glosensor cAMP assay

[2] = target: T1, G-protein coupled receptor 183; assay: Antagonist activity at GPR183 (unknown origin) incubated for 30 mins by calcium mobilization assay; assay type: functional
[3] = target: T1, G-protein coupled receptor 183; assay: Agonist activity at GPR183 (unknown origin) transfected in HEK293 cells assessed as reduction in forskolin induced cAMP generation incubated for 30 mins by Glosensor cAMP assay; assay type: functional, cell-based
[4] = target: T1, G-protein coupled receptor 183; assay: Agonist activity at GPR183 (unknown origin) transfected in HEK293 cells co-expressing LgBiT-fused SmBiT-beta-arrestin assessed as beta-arrestin recruitment using nanoluciferase as substrate incubated for 30 mins by bioluminescence based NanoBiT assay; assay type: functional, cell-based
[5] = target: T1, G-protein coupled receptor 183; assay: Agonist activity at GPR183 (unknown origin) transfected in HEK293 cells cotransfected with CRE-luciferase plasmid assessed as impairment of forskolin induced luciferase activity preincubated for 30 mins followed by forskolin induction and measured after 4 hrs by dual luciferase assay; assay type: functional, cell-based
[6] = Metabolic stability in mouse liver microsomes assessed as intrinsic clearance; assay type: ADME, Microsome; settings: read-out: CLH

T1 sequence (P32249 whole entry): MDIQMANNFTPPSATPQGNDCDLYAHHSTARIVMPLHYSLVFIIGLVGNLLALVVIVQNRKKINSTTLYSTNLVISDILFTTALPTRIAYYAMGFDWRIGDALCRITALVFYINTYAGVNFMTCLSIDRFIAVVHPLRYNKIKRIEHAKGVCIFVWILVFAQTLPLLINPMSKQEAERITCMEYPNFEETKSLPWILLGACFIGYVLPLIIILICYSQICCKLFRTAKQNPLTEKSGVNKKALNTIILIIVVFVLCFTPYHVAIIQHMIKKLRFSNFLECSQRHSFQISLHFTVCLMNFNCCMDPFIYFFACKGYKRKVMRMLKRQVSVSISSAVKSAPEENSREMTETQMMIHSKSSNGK

| SMILES | IC50 [1] | further results |
| --- | --- | --- |
| CN(C)c1nc2ccc(C(=O)N3CCN(C(=O)/C=C/c4ccc(Br)cc4)CC3)cc2s1 | 0.0549 µM | – |
| Nc1nc2ccc(C(=O)N3CCN(C(=O)/C=C/c4ccc5c(c4)CCO5)CC3)cc2s1 | 0.386 µM | – |
| Cn1cnc2cc(C(=O)N3CCN(C(=O)/C=C/c4ccc(Br)cc4)CC3)ccc21 | 0.442 µM | – |
| Cc1nc2ccc(C(=O)N3CCN(C(=O)/C=C/c4ccc(Br)cc4)CC3)cc2[nH]1 | > 10 µM | – |
| COc1ccc(C(=O)N2CC3CCC2CN3C(=O)/C=C/c2ccc(Br)cc2)cc1 (stereo unspecified) | > 10 µM | – |
| COc1ccc(NC(=O)C(F)(F)C2CCN(C(=O)/C=C/c3ccc(Br)cc3)CC2)cc1 | 0.0057 µM | – |
| Cc1c[nH]c2cc(C(=O)N3CCN(C(=O)/C=C/c4ccc(Br)cc4)CC3)ccc12 | 0.0189 µM | – |
| COc1cc2c(cc1OC)CN(C(=O)NOCc1ccccc1)CC2 | – | IC50 [2]: 0.0139 µM |
| Nc1nc2ccc(C(=O)N3CCN(C(=O)/C=C/c4ccc(Cl)cc4)CC3)cc2s1 | 0.0159 µM | – |
| CC(=O)Nc1nc2ccc(C(=O)N3CCN(C(=O)/C=C/c4ccc(Br)cc4)CC3)cc2s1 | 0.0189 µM | – |
| COc1ccc(C(=O)NCC2(F)CCN(C(=O)/C=C/c3ccc(Br)cc3)CC2)cc1 | 0.0662 µM | – |
| C[C@H](CCCC(C)(C)O)[C@H]1CCC2C3C(CC[C@@]21C)[C@@]1(C)CC[C@H](O)CC1=C[C@H]3O (stereo partly specified) | – | EC50 [3]: 0.00015 µM; EC50 [4]: 0.00463 µM; EC50 [5]: 0.00322 µM; Activity ([5]; filed as agonist, time 4.5 hrs): Dose-Dependent Effect |
| COc1ccc(C(=O)NCC2CCN(C(=O)/C=C/c3ccc(Br)cc3)CC2)cc1 | > 10 µM | – |
| Nc1nc2ccc(C(=O)N3CCN(C(=O)/C=C/c4ccc(C(F)(F)F)cc4)CC3)cc2s1 | 0.0301 µM | – |
| O=C(/C=C/c1ccc(Br)cc1)N1CCN(C(=O)c2ccc3[nH]c(=O)[nH]c3c2)CC1 | > 10 µM | – |
| O=C(/C=C/c1ccc(Br)cc1)N1CCN(C(=O)c2ccc3ncsc3c2)CC1 | 0.00305 µM | – |
| O=C(COc1ccc2ccccc2c1)N1CCN(C(=O)Cc2ccccc2)CC1 | – | microsomal CLint [6]: 301 µL/min/mg |
| N#Cc1ccc(/C=C/C(=O)N2CCN(C(=O)c3ccc4nc(N)sc4c3)CC2)cc1 | 0.26 µM | – |
